Holding throughout (assay type): in vivo
One series deals with morphine-dependent mice. Description: Naloxone-precipitated withdrawal jumping in morphine-dependent mice. The protocol: After naloxone administration, mice were placed in clear plastic cylinders (10 cm in diameter and 40 cm in height, and the number of jumps during the following 15 minutes were counted. Naloxone precipitated jumping behavior is a robust response reflecting physical dependence on opioids observed across strains of inbred mice (Kest, B., et al., Neuroscience 2002. 115(2): 463-469).
(§1) In some experiments the selective 5-HT3 antagonist ondansetron (Sigma) was administered. For systemic administration, ondansetron was injected subcutaneously in […] of 0.9% NaCl to some groups of mice. […] For intracerebroventricular (i.c.v.) administration, mice were briefly anesthetized with inhaled isoflurane. A 30 gauge ½ inch needle was used to pierce the skull and enter the ventricles using an approach described previously (Pedigo, N. W. et al. J Pharmacol Exp Ther, 1975. 193(3): p. 845-852). Once inserted, 5 μl of injectate was slowly administered using a microsyringe, and the animals were used within 20 minutes after the injection.

The subject of series [1] is C57BL/6J mice. Description: Opioid dependence related hyperalgesia, mechanical nociceptive threshold (von Frey filaments). Here is the method:
as §1
In these experiments, mice were placed on wire mesh platforms in clear cylindrical plastic cylinders. After 15 minutes of acclimation, fibers of sequentially increasing stiffness were applied to the plantar surface of one hind paw, pressed upward to cause a slight bend in the fiber and left in place 5 sec. Withdrawal of the hind paw from the fiber was scored as a response. When no response was obtained the next stiffest fiber in the series was applied to the same paw; if a response was obtained a less stiff fiber was applied. Testing proceeded in this manner until 4 fibers had been applied after the first one causing a withdrawal response allowing the estimation of the mechanical withdrawal threshold (Poree, L. R., et al., Anesth Analg, 1998. 87(4): p. 941-948).

Series [2] concerns C57BL/6J mice. Description: Conditioned place preference (CPP) associated with morphine. The protocol: The CPP experiments were performed using Place Preference System (MED Associates Inc., St. Albans, Vt.), which consists of three compartments; two outer compartments for active association and a middle neutral compartment. One association compartment is constructed of white opaque plastic walls with a floor made of metal rods while the other compartment is made of black opaque plastic walls with a metal mesh floor. The smaller middle neutral compartment is made of gray opaque plastic walls and floor. Experiments were conducted in a dimly lit room with homogenous lighting (˜20 lux). The place preference apparatus is equipped with motion photo-sensors with data recorded via a computer running MED PC software (MED Associates Inc, Vt.). C57B1/6J mice (8 to 12 weeks old) were used in all experiments, which were carried out during the second half of the light phase between 13:00-18:00 hr. On Day 0, the mice were acclimated to the test room and the time spent in each compartment was recorded (pre-conditioning report). Any mouse that spent more than 75% of the time in either of the association compartments was excluded. On the following day each mouse was randomized to a control or drug group and assigned to either the white or black association compartments in a counter-balanced fashion (n=10-15 per group). […] Twenty-five minutes after injection(s), each mouse was placed into its assigned association compartment for 25 min without access to the other compartments. On Days 2, 4 and 6, the mice received saline injections and were placed in the alternative compartment after 25 min. On Day 7, mice were placed in the middle neutral compartment of the place preference apparatus with full access to the other two compartments and assessed for the length of time spent in each compartment (post-conditioning report). The percentage of time spent in each association compartment was calculated relative to the total time spent in both association compartments.

The test system of another series is Htr3b mRNA. Description: Htr3b mRNA expression in brain after chronic morphine (specificity control). The note with it: brain tissue, four days of morphine versus saline, C57Bl/6J and 129/SvlmJ mice.
For the next series, the system named is healthy male volunteers. Nature of the series: Acute naloxone-precipitated opioid withdrawal in human volunteers after ondansetron pretreatment (OOWS, SOWS). An excerpt: Eight healthy male volunteers underwent an acute precipitated narcotic drug withdrawal protocol as previously described (Compton, P., et al., Pharmacol Biochem Behav, 2004. 77(2): p. 263-268) with or without ondansetron pretreatment using a randomized double-blinded placebo-controlled crossover study design on two separate occasions. Test sessions for each individual subject were separated by at least seven days. Female volunteers were excluded from the study due to modulation of opioid response by menstruation cycles (Hoehe, M., Psychoneuroendocrinology, 1988. 13(4): p. 339-344). The human experimental protocol was approved by the Institutional Review Board (Stanford University). Each volunteer provided written informed consent prior to study enrollment, and the study was registered in the clinicaltrials.gov database (identifier NCT00661674).
All study sessions were conducted by a blinded research assistant (ND) and supervised by an un-blinded physician (LC) who administered the study medication and monitored heart rate, blood pressure and arterial oxygenation throughout the study. The subjective opioid withdrawal scale (SOWS) and objective opioid withdrawal scale (OOWS) were completed after establishing intravenous access and before administration of study medications, as originally described by Handelsman et al (Handelsman, L., et al., Am J Drug Alcohol Abuse, 1987. 13(3): p. 293-308). All OOWS measurements were obtained by the same blinded research assistant (ND). Ondansetron (Bedford Laboratories, Bedford, Ohio) 8 mg or placebo (0.9% saline solution, Hospira Inc., Lake Forest, Ill.) was administered in a double-blinded fashion as an IV bolus. […] Patients remained in the lab under observation for 105 minutes and were offered music or video entertainment and caffeine-free meals or snacks ad lib during this period of time. After 105 minutes, the patient's vital signs and OOWS and SOWS were reassessed. […] Vital signs, SOWS and OOWS were administered five minutes and fifteen minutes after the naloxone administration.
Animal behavioral data was analyzed using one or two-way ANOVA with post-hoc Tukey testing or, for conditioned place preference data with t-testing. The outcome measures of interest between the placebo- and ondansetron-treated groups were compared using paired t test and the Wilcoxon Signed Rank test where appropriate. Normal distribution was determined using QQ plots and the Kolmogorov-Smirnov test. Analyses were performed with SAS 9.1 statistical package (Cary, Ill.) with p<0.05 considered statistically significant.

The test system of the next series is male volunteers. Nature of the series: Naloxone-induced withdrawal in human volunteers, palonosetron alone or with hydroxyzine. To be noted: palonosetron 0.75 mg IV alone, 12 male volunteers. The protocol: In these studies, palonosetron (a 5-HT3 antagonist) was administered alone, or in combination with a clinically available antihistamine (hydroxyzine) to human volunteers.

Where [3] appears, read: ondansetron 8 mg IV 30 minutes prior to morphine 10 mg/70 kg IV, naloxone 120 minutes after morphine, versus placebo.

Entries after “also recorded” stand apart in the source; their conditions may differ.

As for `CN1CC[C@]23c4c5ccc(O)c4O[C@H]2[C@@H](O)C=C[C@H]3[C@H]1C5` [morphine], the “jumps in the 15 minute period following naloxone administration” value in the series on morphine-dependent mice (BUB/BnJ mice made dependent on morphine over a 4-day period) was “over 100”; in the series on morphine-dependent mice (SM/J mice made dependent on morphine over a 4-day period), “one”. In addition, in the series with C57BL/6J mice [1] (C57BL/6J mice, four day morphine protocol), the “hyperalgesia after chronic morphine treatment” value is recorded as “caused hyperalgesia”. Besides, the “mean difference between pre and post conditioning percentage of time spent in the compartment associated with drug” value with C57BL/6J mice [2] (morphine 5 mg/kg i.p., placed in conditioning chamber 25 min after injection) is 21.29%. The “expression of the Htr3b gene” value in the series on Htr3b mRNA is recorded as “not altered”.
For the compound `Cc1nccn1CC1CCc2c(c3ccccc3n2C)C1=O` (stereo not drawn) [ondansetron], the naloxone-precipitated withdrawal response result in the series on morphine-dependent mice (C57BL/6J mice, ondansetron 1 mg/kg with each morphine dose during 4-day protocol, tested 18 hours after final dose (FIG. 3B)) was “diminished the naloxone-precipitated withdrawal response”. For the same compound, the “inhibition of naloxone-precipitated withdrawal” value in the series on morphine-dependent mice (morphine-dependent C57BL/6J mice, ondansetron 1 mg/kg given acutely) is listed as “not able to effectively inhibit withdrawal”. Further, the naloxone-precipitated jumping behavior entry with morphine-dependent mice (morphine-dependent C57BL/6J mice, ondansetron i.c.v. before naloxone (FIG. 3C)) is “profoundly blocked; also recorded: statistically significant and dose-dependent reduction”. In the series on morphine-dependent mice (morphine-dependent C57BL/6J mice, ondansetron s.c. once, range of doses, 30 minutes prior to testing (FIG. 3A)), the naloxone-induced jumping result was “significantly reduced; also recorded: statistically significant and dose-dependent reduction”. The “pain sensitivity / baseline nociceptive thresholds” value with C57BL/6J mice [1] (control mice not treated with morphine, ondansetron 30 minutes prior to threshold assessment) is on record as “no effect on pain sensitivity; also recorded: did not alter baseline nociceptive thresholds”. The “hyperalgesia (mechanical nociceptive sensitization) during morphine abstinence” value in the series on C57BL/6J mice [1] (morphine-dependent mice, 18 hours after last morphine dose, ondansetron 30 minutes prior to threshold assessment (FIG. 4)) is on record as “reversed the hyperalgesia; also recorded: dose-dependently reversed”. The “mean difference between pre and post conditioning percentage of time spent in the compartment associated with drug” value in the series on C57BL/6J mice [2] (ondansetron 1 mg/kg in addition to morphine 5 mg/kg, i.p.) is on record as 0.40%. Also, in the series on C57BL/6J mice [2] (ondansetron 1 mg/kg plus morphine 5 mg/kg), the “place preference associated with morphine administration” value was “completely blocked”. Besides, in the series with healthy male volunteers (setting [3]), the “decrease in mean OOWS score” value was 76.4%±22.6 and the “mean decrease in the subjective symptoms (SOWS score)” value is given as 4.1%±62.5. Further, in the series with healthy male volunteers (ondansetron 8 mg IV pre-treatment, 12 of the 13 measured signs manifested), the “individual OOWS signs manifested by the volunteers” value was “decreased all 12 of these individual signs”. Besides, the “objective signs of opioid withdrawal in affected subjects” value in the series on healthy male volunteers (ondansetron 8 mg IV pre-treatment, seven of 8 subjects developed signs) is “reduced these signs in all seven affected individuals”.
For the compound `O=C1c2cccc3c2[C@H](CCC3)CN1[C@@H]1CN2CCC1CC2` [palonosetron], the “naloxone-induced withdrawal symptoms relative to placebo control” value in the series with male volunteers is “reduced the naloxone-induced withdrawal symptoms”.

These data come from patent US9226918B2, “Methods and compositions for treating or preventing narcotic withdrawal symptoms” (The Board of Trustees of the Leland Stanford Junior …, priority 2008, dated 2016).
